Here are results for 1 compound from patent publication US20080318970A1, “Treatment of Infectious Diseases” (priority 2004, published 2008).

pEC50: −log10 of the molar value.

In series [1] the test system is E. coli, LN 3164. The experiment in a line: MIC susceptibility test, microdilution broth method (NCCLS), chemosensitising compound alone. It is filed as cell-based. Particulars: 37° C., 16 h. How it is done:
Bacteria were sub-cultured on Mueller-Hinton agar plates and incubated over night at 37° C. Pre-warmed Mueller-Hinton broth was inoculated with colonies from the plate and incubated for approximately three hours to achieve a log phase culture. The log phase culture of bacteria was diluted with fresh pre-warmed medium and adjusted to a defined Optical Density (OD) at 600 nm in order to give a final assay concentration of 1×10^4 bacteria/ml medium.
Cell growth was tested using the MIC susceptibility tests by use of the microdilution broth method in accordance to the NCCLS Guidelines (NCCLS Guidelines, Methods for Dilution Antimicrobial Susceptibility Tests for Bacteria That Grow Aerobically; Approved Standard, Sixth Edition, Volume 23; Number 2). A 100% Mueller-Hinton broth and a bacterial concentration of 1×10^4/ml were used.
A log phase culture of bacteria was diluted with fresh pre-warmed medium and adjusted to a defined OD at 600 nm in order to give a final concentration of 1×10^4 bacteria/ml medium in each well. Each chemosensitising compound was added to the bacterial culture in the wells in two-fold dilutions in order to give final concentrations ranging from 8 to 500 μg/ml. Trays were incubated at 37° C. for 16 h. Minimal Inhibitory Concentration, (MIC) is defined as the lowest inhibitory concentration showing no visible growth according to the NCCLS Guidelines.

The subject of series [2] is E. faecalis F86. The experiment in a line: Checkerboard combination study (FIC index). As to conditions: anti-infective agent Dicloxacillin; isolate susceptible (S). It is filed as cell-based, Enterococcus faecalis. How it is done: Enterococcus faecalis, F86. Susceptible clinical isolate. No development of resistance.
(§1) The synergistic effect was studied by checkerboard combination studies exposing cells to 0-64 μg/ml anti-infective agent in the absence or presence of trans-flupenthixol, cis-flupenthixol or trans-clopenthixol. Each experiment was repeated in tripleduplicate. MIC values represent the mean values of two separate experiments,
(§2) A log phase culture of bacteria was diluted with fresh pre-warmed medium and adjusted to a defined OD at 600 nm in order to give a final concentration of 1×10^4 bacteria/ml medium in each well. Each chemosensitising compound was added to the bacterial culture in the wells in two-fold dilutions in order to give final concentrations ranging from 0 to 8 μg/ml. Anti-infective agent was added to the bacterial culture in the wells in two-fold dilutions in order to give final concentrations ranging from 0 to 64 μg/ml Trays were incubated at 37° C. for 16 h. Wells were assessed visually for growth. The Fractional Inhibitory Concentration (FIC) was calculated for each anti-infective agent alone and in combination with trans-flupenthixol, cis-flupenthixol or trans-clopenthixol. The following formulae were used to calculate the FIC index:
(§3) FIC=FICchemosensitising compound+FICanti-infective agent
(§4) FICchemosensitising compound=(MICchemosensitising compound+anti-infective agent)/(MICchemosensitising compound)
(§5) FICanti-infective agent=(MICanti-infective agent+chemosensitising compound/(MICanti-Infective agent)
(§6) Synergy was defined as a FIC index of <0.5.

For series [3], the system named is S. aureus E45. Description: Checkerboard combination study (FIC index). In kind it is cell-based, Staphylococcus aureus. Particulars: isolate resistant (R). How it is done: Staphylococcus aureus E45 MRSA. Clinical isolate. Resistant to methicillin. Susceptible to teicoplanin chloramphenicol, fosfomycin, netilmicin and vancomycin.
as §1, §2, §3, §4, §5, §6

Series [4] has as its system S. aureus O11. The experiment in a line: Checkerboard combination study (FIC index). In kind it is cell-based, Staphylococcus aureus. As to conditions: anti-infective agent Dicloxacillin; isolate susceptible (S). How it is done:
Staphylococcus aureus O11. Clinical isolate resistant to penicillin. Susceptible to methicillin, tetracycline, beta-lactams, fluoroquinolones, chloramphenicol and aminoglycosides.
as §1, §2, §3, §4, §5, §6

The subject of series [5] is P. aeruginosa 432b. Description: Checkerboard combination study (FIC index). In kind it is cell-based. Particulars: isolate resistant (R). How it is done: P. aeruginosa 432b. Clinical multidrug resistant isolate. Resistant to tetracycline, beta-lactams, fluoroquinolones, and aminoglycosides. Beta-lactamase producing, changes in Penicillin Binding Proteins and changes in Outer Membrane Proteins.
as §1, §2, §3, §4, §5, §6

The subject of series [6] is S. aureus O11. It is filed as cell-based.
Series [7] deals with Enterococcus faecalis BG-029. The experiment in a line: Mouse peritonitis model, bacterial counts in peritoneal fluid. In kind it is in vivo, NMRI mice. As to conditions: neutropenic mice; subcutaneous; 6 h; ciprofloxacin 12.5 mg per mouse, trans-clopenthixol 5 mg per kg, alone or combined. How it is done: Female NMRI mice (age, approximately 6 to 8 weeks; weight, 30±2 g) were used for the mouse […] peritonitis model (as described below). Bacterial suspensions were prepared from fresh overnight cultures (made from frozen stock cultures) on 5% blood agar plates as described above. […] The size of the inoculum was determined by viability counting on 5% blood agar. Neutropenia was introduced by pretreating the mice with cyclophosphamide (6 mg daily for three days). […] Inoculated untreated control mice were included in all trials. […] After the mice were killed, peritoneal washes were performed by injecting 2 ml of sterile saline intraperitoneally, followed by massage of the abdomen and then opening of the peritoneum to collect the fluid.

The subject of series [8] is HIV-1 strain HTLV-IIIB. Description: Inhibition of HIV-1 replication in MT4 cells (MTT assay). It is filed as cell-based. How it is done: Each experiment was repeated in tripleduplicate. MIC values represent the mean values of two separate experiments.
The HIV-1 strain HTLV-IIIB were propagated in H9 cells at 37° C., 5% CO2 using RPMI 1640 with 10% heat-inactivated foetal calf serum (FCS) and antibiotics (growth medium). Culture supernatant was filtered ([…]), aliquotted, and stored at −80° C. until use. The HIV-1 strain was obtained from NIH AIDS Research and Reference Program.
(§7) Compounds were examined for possible antiviral activity against strain 111B of HIV-1 using MT4 cells as target cells. MT4 cells were incubated with virus (0.005 MOI) and growth medium containing the test dilutions of compound(s) for six days in parallel with virus-infected and uninfected control cultures without compound added. Expression of HIV in the cultures was indirectly quantified using the MTT assay as previously described. Compounds mediating less than 30% reduction of HIV expression were considered without biological activity. Compounds were tested in parallel for cytotoxic effect in uninfected MT4 cultures containing the test dilutions of compound as described above. Cultures for test of both antiviral activity and cytotoxic effect were set up in tripleduplicates, […] per culture in micro titre plates.
The 50% inhibitory concentration was determined by interpolation from the plots of percent inhibition versus concentration of compound.
EC50 is defined as the effective concentration that inhibits 50% of viral production, 50% of viral infectivity, or 50% of the virus-induced cytopathic effect.

The test system of series [9] is uninfected MT4 cells. The experiment in a line: Cytotoxic effect in uninfected MT4 cultures. It is filed as cell-based. How it is done:
as §7
CC50 is defined as the inhibitory concentration that reduces cellular growth or viability of uninfected cells by 50%.

The mark [10] stands for this setting: alone, at the concentrations used.

As to `OCCN1CCN(CC/C=C2\c3ccccc3Sc3ccc(Cl)cc32)CC1` [trans-clopenthixol], the MIC in [1] stood at 16 µg/mL. Also, the FIC index in series [2] is reported as 0.25; in series [3] (anti-infective agent Dicloxacillin) it was 0.06; in [3] (anti-infective agent Fucidic acid), 0.06; in [4], 0.25; in series [5] (anti-infective agent Ciprofloxacin), 0.008; in [5] (anti-infective agent Gentamicin), 0.032. For the same compound, the FIC index in [5] (anti-infective agent Piperacillin) is 0.063. Moreover, in [6] (1 μg of ciprofloxacin per ml (two times the MIC) in the presence of inhibitor (1 μg/ml)), the “Frequency on emergence of resistance” value was <1 × 10^−10. The “decrease of the frequency of spontaneous emergence of ciprofloxacin resistance” value in series [6] (inhibitor 1 μg/ml) was no less than 100 fold. For the same compound, the “toxic effect of the inhibitor on S. aureus plated in the absence of ciprofloxacin (in words)” value in series [6] (inhibitor 1 μg/ml) was “affected neither the colony-forming ability nor the colony size”. In addition, the “bactericidal activity in mouse peritoneum (in words)” value in series [7] was “did not affect the bacteria”. In series [8] (setting [10]), the “antiviral effect (in words)” value is listed as “no antiviral or cytotoxic effect”. The compound further gave a negative-log EC50 (pEC50) in [8] (compound alone, MT4 cells, six days) of less than 5.52. In series [9] (setting [10]), the “cytotoxic effect (in words)” value was “no antiviral or cytotoxic effect”. In series [9] (compound alone, uninfected MT4), this compound displayed a CC50 greater than 3 µM.
